Data on eleven compounds can be found in PubChem BioAssay (NCI).

Test systems include XF 498 CNS; P388 leukemia; M19-MEL melanoma; DLD-1 colon; P388/ADR leukemia; SNB-78 CNS; HOP-18 NSCLC; LXFL 529 NSCLC; RXF-631 renal.
Assay in all cases: NCI tumour cell line growth inhibition, 48 h

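Briefly, cells in 96-well plates were exposed to five compound concentrations for 48 h, and endpoints were estimated by linear interpolation. GI50 is the concentration that inhibits growth by half. TGI marks complete inhibition of growth.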

With `ClCCCN1CCN(CCCl)CC1`, the TGI in the test with XF 498 CNS is 147 µM; with P388 leukemia, more than 840 µM; in the test on M19-MEL melanoma it was 773 µM; with DLD-1 colon, 319 µM; in the test with P388/ADR leukemia, more than 529 µM; in the test on SNB-78 CNS, more than 567 µM. The compound also came in with a TGI in the test with HOP-18 NSCLC of more than 1000 µM.
Take `COc1cc(/C=C/c2ccc(OC)c(OC)c2)oc(=O)c1`: the TGI in the test with XF 498 CNS, in the test on P388 leukemia, in the test on M19-MEL melanoma, in the test on DLD-1 colon, in the test on P388/ADR leukemia and with SNB-78 CNS was more than 250 µM each time. The compound further showed a TGI in the test with HOP-18 NSCLC of more than 250 µM.
For the compound `CCC1(CC)C(=O)NC(=O)NC1=S`, the TGI in the test with M19-MEL melanoma, in the test with DLD-1 colon, with LXFL 529 NSCLC, in the test with SNB-78 CNS and in the test on HOP-18 NSCLC was more than 100 µM each time.
On to `CCC1(O)C(=O)OCc2c1cc1n(c2=O)Cc2cc3cc4c(cc3nc2-1)OCO4` (centres undefined), for which the TGI in the test with XF 498 CNS is 0.225 µM; in the test on P388 leukemia it was 0.117 µM; in the test on M19-MEL melanoma it was 0.205 µM; in the test with DLD-1 colon it was more than 60.3 µM; with LXFL 529 NSCLC it was 2.27 µM; in the test with RXF-631 renal, 1.13 µM. In addition, the values for the TGI in the test with P388/ADR leukemia, in the test on SNB-78 CNS and in the test on HOP-18 NSCLC were less than 0.0172 µM, more than 57.8 µM and 0.824 µM, respectively. For the same compound, the GI50 in the test on LXFL 529 NSCLC was 0.128 µM.
As for `CC1[C@@]2(O[C@@H]3C=C4C5CCC6Cc7nc8c(nc7C[C@@]6(C)C5C[C@H](O)[C@@]4(C)[C@]13O)CC1CCc3c(cc4c5c3C(O)C[C@H]5[C@@H](C)C3(O4)OC(C)(C)CC3O)[C@]1(C)C8)O[C@@](C)(CO)C[C@@H]2O` (some centres undefined), the TGI in the test on XF 498 CNS is 0.248 µM; with P388 leukemia it was more than 3.72 µM; in the test on M19-MEL melanoma it was more than 3.72 µM; in the test on DLD-1 colon, more than 3.72 µM; with P388/ADR leukemia, more than 3.72 µM; with SNB-78 CNS, 2.33 µM. Besides, the TGI in the test with HOP-18 NSCLC was more than 3.72 µM.
Consider `COc1ccc2[nH]c3ccc4cc[n+](CCN5CCC(C6CCN(CC[n+]7ccc8ccc9[nH]c%10ccc(OC)cc%10c9c8c7)CC6)CC5)cc4c3c2c1`, for which the TGI with XF 498 CNS is more than 75.9 µM; in the test on P388 leukemia it was more than 100 µM; with M19-MEL melanoma, 16.1 µM; with DLD-1 colon, more than 100 µM; with P388/ADR leukemia, more than 100 µM; in the test with SNB-78 CNS, 66.4 µM. This compound yielded a TGI in the test with HOP-18 NSCLC of 15.1 µM.
On to `COc1ccc(C2CC(c3sc(Nc4ccc(C)cc4)nc3C)=NN2)cc1` (centres undefined), for which the TGI was 36.7 µM with XF 498 CNS; 20.3 µM in the test with P388 leukemia; more than 59 µM with M19-MEL melanoma; 35.7 µM in the test on DLD-1 colon; 24.3 µM in the test with P388/ADR leukemia; 52 µM in the test with SNB-78 CNS. Also, in the test with HOP-18 NSCLC, the TGI is 35.4 µM.
For `CN(C)CCNC(=O)c1cccc2c1C(=O)c1ccccc1C2=O`, the TGI is more than 100 µM with XF 498 CNS; 43.9 µM in the test with P388 leukemia; 41.7 µM in the test with M19-MEL melanoma; more than 77.6 µM in the test on DLD-1 colon; 48.4 µM in the test on P388/ADR leukemia; more than 86.6 µM with SNB-78 CNS. Besides, in the test on HOP-18 NSCLC, the TGI is more than 100 µM.
In the case of `Nc1nnc(N)n1N`, the TGI in the test on XF 498 CNS, in the test with M19-MEL melanoma, in the test on DLD-1 colon, with LXFL 529 NSCLC, with RXF-631 renal and in the test on SNB-78 CNS was more than 100 µM each time.
For the compound `Cc1ccc(C(=O)Nc2ccc(S(=O)(=O)O)c3cc(S(=O)(=O)O)cc(S(=O)(=O)O)c23)cc1NC(=O)c1cccc(NC(=O)Nc2cccc(C(=O)Nc3cc(C(=O)Nc4ccc(S(=O)(=O)O)c5cc(S(=O)(=O)O)cc(S(=O)(=O)O)c45)ccc3C)c2)c1`, the TGI in the test on XF 498 CNS was 90.5 µM; with M19-MEL melanoma it was more than 100 µM; in the test on DLD-1 colon it was more than 100 µM; in the test with LXFL 529 NSCLC, more than 100 µM; in the test with SNB-78 CNS, more than 100 µM; in the test with HOP-18 NSCLC, more than 93.3 µM.
Consider `O=[N+]([O-])c1ccc(C[P+]2(c3ccccc3)CCCCC2)cc1` (tested in a mixture with another compound), for which the TGI with XF 498 CNS was more than 100 µM; in the test with DLD-1 colon, more than 100 µM; in the test with LXFL 529 NSCLC it was more than 100 µM; with RXF-631 renal it was more than 100 µM; in the test with HOP-18 NSCLC it was 65.8 µM.
